Strand notation (5' to 3'): a small letter for the sugar, then the base; units joined by * are phosphorothioate-linked, units joined directly phosphodiester-linked; [ ] holds rarer units or linkages, { } end groups; capitals alone tell only the bases. e = 2'-O-(2-methoxyethyl) (MOE); [5mC] = 5-methylcytosine; d = 2'-deoxy (DNA)
Columns and labels:
[1] = Bioavailability of antisense oligonucleotide after intra-jejunal dosing through a catheter, plasma level by anion-exchange chromatography (Example 3); type: in vivo, male rhesus monkeys; details: rhesus monkey, po
Text: The compositions were compared by administering them in solution form through a catheter to test subjects. A jejunal catheter is surgically implanted in six male rhesus monkeys (3-5 years, 3-5 Kg) under anesthesia. The catheters are attached to a subcutaneous access port to allow dosing through the port into the jejunum. The animals are allowed to recover at least 7 days prior to dosing. […] The antisense oligonucleotide is detected by anion-exchange chromatography. The formulations and the measurements of bioavailability, Tmax and plasma peak of antisense oligonucleotide after administration of formulations are described in the chart below.

[2] = Solubility of the enhancer system in phosphate buffer saline

Molecule: antisense oligonucleotide: 5-10-5 MOE gapmer phosphorothioate, 5-methylcytosines, targets human TNF-α; GCTGATTAGAGAGAGGTCCC (antisense eG*e[5mC]*eT*eG*eA*dT*dT*dA*dG*dA*dG*dA*dG*dA*dG*eG*eT*e[5mC]*e[5mC]*e[5mC])
- permeability without any permeation enhancer systems [1]: poor permeability

Molecule: CCCCCCCCCCC(CCCCCCCC)C(=O)[O-].[Na+] (centres unmarked) [sodium 2-n-octyl-dodecanoate]
- Solubility in phosphate buffer saline [2]: not fully soluble
